Experimental data published in the supplement of paper PMC10627819.

Experiments:
[1] = system: S. pneumoniae D39V; test: Bliss interaction score (quartile over a dose matrix) (fitness difference); higher = more antagonism (negative = synergy)
How it was run: (§1)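 The Bliss score subtracts expected fitness, the product of the single-drug fitness values, from observed fitness. Fitness is plate-normalised OD595 at entry into stationary phase, relative to the robust no-drug mean and capped at 1, with single-drug fitness inferred from combinations. Summaries are quartiles over technical, biological and donor/recipient replicates.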

[2] = system: S. aureus Newman; test: as above
How it was run: as §1

[3] = system: B. subtilis 168; test: as above
How it was run: as §1

[4] = system: S. aureus DSM 20231; test: as above
How it was run: as §1

[5] = system: B. subtilis 168; test: fitness (endpoint OD595 vs no drug) (fraction); higher = more growth
How it was run: (§2)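 With the first reading as background, OD595 was measured every 30 min for 14 h in 384-well plates kept at 37 °C and inoculated at OD595 0.01. TSB, LB Lennox or CY was the medium. Fitness is the optical density at the transition into stationary phase divided by the robust mean of no-drug control wells, with a cap of 1.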

[6] = system: S. aureus DSM 20231; test: as above
How it was run: as §2
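For Bliss interaction score (quartile over a dose matrix) in this document: first quartile when negative (synergy) and third quartile when positive (antagonism).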

Cc1ncc([N+](=O)[O-])n1CCO [Metronidazole] + COc1cc(Cc2cnc(N)nc2N)cc(OC)c1OC [Trimethoprim]
Conditions | Bliss interaction score
[1] | 0.232
[2] | 0.0902
[3] | 0.11
[4] | -0.0577

fitness, [5], one replicate
Conditions | partner 0.1 µg/mL | partner 0.125 µg/mL | partner 0.2 µg/mL | partner 0.4 µg/mL | partner 1 µg/mL | partner 2 µg/mL
first compound 0.625 µg/mL | 0.832 | 0.747 | 0.759 | 0.572 | 0.419 | 0.373
first compound 1.25 µg/mL | 0.866 | 0.772 | 0.83 | 0.555 | 0.341 | 0.361
first compound 2.5 µg/mL | 0.956 | 0.785 | 0.828 | 0.578 | 0.396 | 0.44

fitness
Conditions | first compound 0.625 µg/mL | first compound 1.25 µg/mL | first compound 2.5 µg/mL
[5], partner 0.25 µg/mL | 0.743 | 0.724 | 0.72
[5], partner 0.5 µg/mL | 0.568 | 0.531 | 0.471
[6], partner 0.125 µg/mL | 0.704 | 0.744 | 0.749
[6], partner 0.25 µg/mL | 0.607 | 0.619 | 0.652
[6], partner 1 µg/mL | 0.0438 | 0.0565 | 0.0572

COc1ccc(C[C@H](N)C(=O)N[C@H]2[C@@H](O)[C@H](n3cnc4c(N(C)C)ncnc43)O[C@@H]2CO)cc1 [Puromycin] + COc1cc(Cc2cnc(N)nc2N)cc(OC)c1OC [Trimethoprim]
Conditions | Bliss interaction score
[1] | -0.203
[2] | 0.0927
[3] | 0.0908
[4] | 0.113

fitness, one replicate
Conditions | first compound 0.39 µg/mL | first compound 0.78 µg/mL | first compound 1.56 µg/mL | first compound 3.12 µg/mL | first compound 6.24 µg/mL
[5], partner 0.1 µg/mL | 0.818 | 0.875 | 0.962 | – | –
[5], partner 0.125 µg/mL | 0.756 | 0.748 | 0.77 | – | –
[5], partner 0.2 µg/mL | 0.814 | 0.85 | 0.831 | – | –
[5], partner 0.4 µg/mL | 0.562 | 0.581 | 0.575 | – | –
[5], partner 1 µg/mL | 0.332 | 0.342 | 0.365 | – | –
[5], partner 2 µg/mL | 0.326 | 0.29 | 0.235 | – | –
[6], partner 0.125 µg/mL | 0.804 | 0.921 | – | 0.908 | 0.596
[6], partner 0.25 µg/mL | – | – | – | 0.812 | 0.631
[6], partner 0.5 µg/mL | – | – | – | 0.48 | 0.613

fitness
Conditions | first compound 0.39 µg/mL | first compound 0.78 µg/mL | first compound 1.56 µg/mL
[5], partner 0.25 µg/mL | 0.695 | 0.738 | 0.71
[5], partner 0.5 µg/mL | 0.492 | 0.481 | 0.514
[6], partner 0.125 µg/mL | – | – | 0.876
[6], partner 0.25 µg/mL | 0.605 | 0.639 | 0.682
[6], partner 0.5 µg/mL | 0.164 | – | 0.222
[6], partner 1 µg/mL | 0.0431 | 0.0497 | 0.0562
